# According to US20240285769A1, “INJECTABLE, BIODEGRADABLE AND REMOVABLE POLYMER BASED DRUG SUSPENSION FOR ULTRA-LONG-ACTING DRUG DELIVERY” (The University of North Carolina at Chapel Hill, priority 2021, published 2024):
# Tests used:
# [1] = In vitro drug release studies of ISFIs; format: physicochemical; settings: ISFI suspension 1:4 PLGA/(NMP:DMSO), 290 mg/g
# Protocol: Sample aliquots (1 mL) were collected at various time points and replaced with fresh release medium. The release medium was completely removed and replaced with fresh medium every week to maintain sink conditions. Drug concentration in the release samples was quantified by HPLC using the method described above. Cumulative drug release was calculated from the HPLC analysis and normalized to the total mass of drug in the implant. All experiments were performed in quadruplicate. ISFIs were prepared with 1:2 w/w PLGA:(NMP/DMPS 1:1) (PLGA MW 27 kDa, 50:50 LA/GA). […] To investigate the effect of polymer MW on CAB release kinetics, two CAB suspension ISFIs were prepared using PLGA (50:50 LA/GA) with MW of 10 kDa and 27 kDa. CAB was loaded at a constant concentration of 250 mg/g as a stable suspension formulation in a 1:2 PLGA/solvent (solvent=NMP/DMSO 1:1 w/w). […] 55 μg/d compared to 13.53 μg/d for PLGA MW 27 kDa. […] The effect of formulation composition and addition of rate controlling polymers like star-PLGA (5-arm 50:50 LA/GA PLGA MW 54 kDa) on drug release kinetics were also investigated. Three formulations were prepared using NMP/DMSO (1:1) as a co-solvent system, PLGA (50:50 LA/GA MW 27 kDa) and PLGA/star-PLGA (9:1 w/w) polymer combination. CAB was loaded at a constant concentration of 300 mg/g in all three formulations. […]
# [2] = Preparation and optimization of drug suspension formulations; format: physicochemical
# Protocol: The polymer based drug suspensions were prepared by: (1) Placebo formulation: 50:50 Poly(DL-lactide-co-glycolide) (PLGA), MW 10 or 27 kDa, or Poly(lactic acid) (PLA) MW 10 kDa, was mixed with N-methyl-2-pyrrolidone (NMP) or a combination of NMP and DMSO (e.g. 1:1 v/v) at various weight ratios of PLGA/solvent (w/w) and allowed to dissolve by continuous mixing at room temperature (Placebo). […] (2) Drug loading: […] (3) Depot formation: A sample from the resulting drug-loaded suspension formulation (30 μL, 30±3 mg) was injected into 200 mL of 0.01 M PBS pH 7.4 using a pipette and incubated at 37° C. for 24 h to produce a spherical implant, as an example. […] Of importance, but without being limited to any particular theory or mechanism of action, is the ratio of the polymer:solvent:drug that achieves high drug loading in a stable polymeric suspension formulation and which is correlated to the drug's saturation solubility in the solvent system.
compound,measurement,setting,value
"Cn1c(Cn2ccc(C(F)(F)F)c(Oc3cc(Cl)cc(C#N)c3)c2=O)n[nH]c1=O [DOR, Doravirine]",burst release in 24 h,[1]; PBS 37° C.,< 2%
same,drug release at d3,[1]; last timepoint analyzed,3%
same,suspension formation when loaded above saturation concentration in PLGA/solvent placebo,[2],formed stable syringeable formulations
same,depot formation when injected into aqueous release medium,"[2]; PBS, pH 7.4, 37° C.",formation of stable depots
